Experimental data taken from ChEMBL document CHEMBL1201862, “PubChem BioAssay data set” (2004).
Activity calls are given as the source filed them.

Legend:
Cytochrome P450 2C9 = Cytochrome P450 2C9 (Homo sapiens, UniProt P11712); settings: Potency
Cytochrome P450 3A4 = Cytochrome P450 3A4 (Homo sapiens, UniProt P08684); settings: Potency;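 also: confirmatory qHTS run detecting inhibitors and substrates of CYP3A4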
[1] = A High Throughput Confirmatory Assay used to Identify Novel Compounds that Inhibit Mycobacterium Tuberculosis in the absence of Glycerol.; assay type: functional
Fatty acid synthase [2] = biological target: T1, Fatty acid synthase (Homo sapiens, UniProt P49327); assay: FAS thioesterase domain inhibitors, dose response, biochemical, endpoint fluorescence intensity, uHTS hits (AID 624327); assay type: functional;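 also: fluorescence from hydrolysis of an O-methyl fluorescein acyl ester substrate by the enzyme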
[3] = microbe, parasite or virus in culture; assay type: functional; settings: Mycobacterium tuberculosis
Fatty acid synthase [4] = biological target: T1, Fatty acid synthase; assay: FAS thioesterase domain inhibitors, dose response, biochemical, kinetic fluorescence intensity (AID 624326); assay type: functional;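 also: rate of fluorescence rise from hydrolysis of a fluorogenic O-methyl fluorescein ester substrate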
Bcl-2-related protein A1 [5] = biological target: T2, Bcl-2-related protein A1 (Mus musculus, UniProt Q07440); assay: Bfl-1 binding inhibitors, SAR follow-up, biochemical, fluorescence polarization (AID 1070)
T2 sequence (Q07440 whole entry): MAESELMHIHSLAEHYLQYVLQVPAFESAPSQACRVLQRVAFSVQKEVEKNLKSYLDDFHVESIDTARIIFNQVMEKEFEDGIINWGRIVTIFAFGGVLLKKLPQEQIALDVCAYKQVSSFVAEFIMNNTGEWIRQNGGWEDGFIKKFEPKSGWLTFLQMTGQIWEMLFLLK

Bcl-2-related protein A1 [6] = biological target: T2, Bcl-2-related protein A1; assay: Bfl-1 inhibitors blocking BH3 peptide binding, confirmation, biochemical, TR-FRET, mouse Bfl-1 (AID 621);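 also: TR-FRET binding of GST-Bfl-1 to FITC-labelled Bid peptide via terbium antibody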
[7] = biological target: Serine/threonine-protein phosphatase (Homo sapiens, UniProt Q9BPW0); assay: PP5 phosphatase inhibitors, dose response, biochemical, fluorescence (AID 2395)
[8] = biological target: Serine/threonine-protein phosphatase PP1-alpha catalytic subunit (Homo sapiens, UniProt P62136); assay: PP1 phosphatase inhibitors, dose response, biochemical, fluorescence (AID 2394)
[9] = inhibitors of Bluetongue virus cytopathic effect, confirmation, arbovirus, BSR cells (AID 1250); assay type: functional;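 also: protection from viral cytopathic effect measured as cell viability by ATP luminescence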
[10] = HEp-2 cell cytotoxicity, dose response, cytotoxicity control for RSV inhibitor project, HTS (AID 2410); assay type: functional; settings: human respiratory syncytial virus
[11] = biological target: Lysosomal acid glucosylceramidase (Homo sapiens, UniProt P04062); assay: Dose response cell-based high throughput screening assay to identify enhancers of beta-glucosidase activity. [Related pubchem assays: 784 ]; assay type: functional
[12] = Luminescence Cell-Based Dose Confirmation HTS to Identify Activators of 5'UTR Stem-Loop Driven Alpha-Synuclein mRNA Translation in H4 Neuroglioblastoma Cells. [Related pubchem assays: 1829 (Project Summary), 1814 (Primary HTS)]; assay type: functional
Beta-galactosidase = Beta-galactosidase (Escherichia coli, UniProt Q8VNN2); assay: beta-galactosidase enzyme inhibitors and activators, dose response, artefact control for CCR6 antagonist project, biochemical, E. coli enzyme, set 3 (AID 504712); assay type: functional
[13] = biological target: C-C chemokine receptor type 6 (Homo sapiens, UniProt P51684); assay: CCR6 receptor antagonists, dose response, cell-based, luminescent beta-arrestin readout (AID 504728); assay type: functional
H4 = assay: Luminescence Cell-Based Dose Response HTS to Identify Activators of 5'UTR Stem-Loop Driven Prion Protein mRNA Translation in H4 Neuroglioblastoma Cells. [Related pubchem assays: 1829 (Project Summary), 1814 (Primary HTS)]; assay type: functional; settings: Homo sapiens
[14] = Luminescence Cell-Based Dose Response HTS to Identify Activators of Luciferase Translation or Activity in H4 […] Cells. [Related pubchem assays: 1829 (Project Summary), 1814 (Primary HTS)]; assay type: functional
Oxytocin receptor = Oxytocin receptor (Homo sapiens, UniProt P30559); assay: Fluorescence-based cell-based high throughput dose response assay for agonists of the Oxytocin Receptor (OXTR). [Related pubchem assays: 2435 (Primary screen (OXTR agonists in singlicate)), 434991 (Counterscreen (V1R agonists in triplicate)), 2482 (Summary (OXTR agonists)), 434963 (Confirmation screen (OXTR agonists in triplicate))]; assay type: functional
Vasopressin V1a receptor = Vasopressin V1a receptor (Homo sapiens, UniProt P37288); assay: Counterscreen for Oxytocin Receptor (OXTR) agonists: Fluorescence-based cell-based high throughput dose response assay to identify agonists of the vasopressin 1 receptor (V1R). [Related pubchem assays: 2435 (Primary screen (OXTR agonists in singlicate)), 434991 (Counterscreen (V1R agonists in triplicate)), 2482 (Summary (OXTR agonists)) …; assay type: functional
[15] = Counterscreen for IDE inhibitors: Luminescence-based cell-based high throughput dose response assay to identify compounds that are cytotoxic to HEK cells. [Related pubchem assays: 434962 (Primary screen (IDE inhibitors in singlicate)), 449730 (Counterscreen (Cytotoxicity in triplicate)), 435028 (Confirmation (IDE inhibitors in triplicate)) …; assay type: functional; settings: HEK293
[16] = biological target: Dual specificity tyrosine-phosphorylation-regulated kinase 1A (Rattus norvegicus, UniProt Q63470); assay type: biochemical, Homo sapiens
Insulin-degrading enzyme = biological target: T3, Insulin-degrading enzyme (Homo sapiens, UniProt P14735); assay: Dose Response: Fluorescence polarization-based cell-based high throughput dose response assay for inhibitors of insulin-degrading enzyme (IDE). [Related pubchem assays: 434962 (Primary screen (IDE inhibitors in singlicate)), 449730 (Counterscreen (Cytotoxicity in triplicate)), 435028 (Confirmation (IDE inhibitors in triplicate)), 434984 (Summary …; assay type: functional
T3 sequence (P14735 whole entry): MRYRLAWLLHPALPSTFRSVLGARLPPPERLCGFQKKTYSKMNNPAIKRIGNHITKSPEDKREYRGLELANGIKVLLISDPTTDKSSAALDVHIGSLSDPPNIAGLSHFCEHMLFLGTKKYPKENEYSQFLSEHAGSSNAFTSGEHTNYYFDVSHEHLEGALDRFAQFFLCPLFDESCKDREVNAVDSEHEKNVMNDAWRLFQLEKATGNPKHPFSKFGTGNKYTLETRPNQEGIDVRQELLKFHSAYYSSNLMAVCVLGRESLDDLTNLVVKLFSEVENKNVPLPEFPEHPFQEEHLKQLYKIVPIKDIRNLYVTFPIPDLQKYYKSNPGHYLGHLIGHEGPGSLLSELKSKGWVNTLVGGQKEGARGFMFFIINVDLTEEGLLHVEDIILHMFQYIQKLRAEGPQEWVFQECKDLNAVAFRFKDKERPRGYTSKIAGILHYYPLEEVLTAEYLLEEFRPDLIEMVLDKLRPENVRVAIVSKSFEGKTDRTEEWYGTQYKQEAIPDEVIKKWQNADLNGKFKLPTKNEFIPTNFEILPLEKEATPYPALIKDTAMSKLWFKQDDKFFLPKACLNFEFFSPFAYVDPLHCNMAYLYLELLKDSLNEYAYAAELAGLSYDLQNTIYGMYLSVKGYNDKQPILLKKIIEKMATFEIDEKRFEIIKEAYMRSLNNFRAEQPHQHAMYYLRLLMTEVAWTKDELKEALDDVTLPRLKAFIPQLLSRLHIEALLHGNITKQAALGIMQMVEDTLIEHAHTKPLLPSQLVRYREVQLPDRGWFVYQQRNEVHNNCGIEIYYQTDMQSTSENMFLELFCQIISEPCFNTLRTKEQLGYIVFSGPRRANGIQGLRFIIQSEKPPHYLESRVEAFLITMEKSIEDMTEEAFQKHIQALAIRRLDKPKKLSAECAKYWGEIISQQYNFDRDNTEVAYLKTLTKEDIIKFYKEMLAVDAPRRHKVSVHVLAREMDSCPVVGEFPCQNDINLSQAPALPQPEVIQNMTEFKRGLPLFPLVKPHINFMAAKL

T1 sequence (P49327 whole entry, the tested form may be a part): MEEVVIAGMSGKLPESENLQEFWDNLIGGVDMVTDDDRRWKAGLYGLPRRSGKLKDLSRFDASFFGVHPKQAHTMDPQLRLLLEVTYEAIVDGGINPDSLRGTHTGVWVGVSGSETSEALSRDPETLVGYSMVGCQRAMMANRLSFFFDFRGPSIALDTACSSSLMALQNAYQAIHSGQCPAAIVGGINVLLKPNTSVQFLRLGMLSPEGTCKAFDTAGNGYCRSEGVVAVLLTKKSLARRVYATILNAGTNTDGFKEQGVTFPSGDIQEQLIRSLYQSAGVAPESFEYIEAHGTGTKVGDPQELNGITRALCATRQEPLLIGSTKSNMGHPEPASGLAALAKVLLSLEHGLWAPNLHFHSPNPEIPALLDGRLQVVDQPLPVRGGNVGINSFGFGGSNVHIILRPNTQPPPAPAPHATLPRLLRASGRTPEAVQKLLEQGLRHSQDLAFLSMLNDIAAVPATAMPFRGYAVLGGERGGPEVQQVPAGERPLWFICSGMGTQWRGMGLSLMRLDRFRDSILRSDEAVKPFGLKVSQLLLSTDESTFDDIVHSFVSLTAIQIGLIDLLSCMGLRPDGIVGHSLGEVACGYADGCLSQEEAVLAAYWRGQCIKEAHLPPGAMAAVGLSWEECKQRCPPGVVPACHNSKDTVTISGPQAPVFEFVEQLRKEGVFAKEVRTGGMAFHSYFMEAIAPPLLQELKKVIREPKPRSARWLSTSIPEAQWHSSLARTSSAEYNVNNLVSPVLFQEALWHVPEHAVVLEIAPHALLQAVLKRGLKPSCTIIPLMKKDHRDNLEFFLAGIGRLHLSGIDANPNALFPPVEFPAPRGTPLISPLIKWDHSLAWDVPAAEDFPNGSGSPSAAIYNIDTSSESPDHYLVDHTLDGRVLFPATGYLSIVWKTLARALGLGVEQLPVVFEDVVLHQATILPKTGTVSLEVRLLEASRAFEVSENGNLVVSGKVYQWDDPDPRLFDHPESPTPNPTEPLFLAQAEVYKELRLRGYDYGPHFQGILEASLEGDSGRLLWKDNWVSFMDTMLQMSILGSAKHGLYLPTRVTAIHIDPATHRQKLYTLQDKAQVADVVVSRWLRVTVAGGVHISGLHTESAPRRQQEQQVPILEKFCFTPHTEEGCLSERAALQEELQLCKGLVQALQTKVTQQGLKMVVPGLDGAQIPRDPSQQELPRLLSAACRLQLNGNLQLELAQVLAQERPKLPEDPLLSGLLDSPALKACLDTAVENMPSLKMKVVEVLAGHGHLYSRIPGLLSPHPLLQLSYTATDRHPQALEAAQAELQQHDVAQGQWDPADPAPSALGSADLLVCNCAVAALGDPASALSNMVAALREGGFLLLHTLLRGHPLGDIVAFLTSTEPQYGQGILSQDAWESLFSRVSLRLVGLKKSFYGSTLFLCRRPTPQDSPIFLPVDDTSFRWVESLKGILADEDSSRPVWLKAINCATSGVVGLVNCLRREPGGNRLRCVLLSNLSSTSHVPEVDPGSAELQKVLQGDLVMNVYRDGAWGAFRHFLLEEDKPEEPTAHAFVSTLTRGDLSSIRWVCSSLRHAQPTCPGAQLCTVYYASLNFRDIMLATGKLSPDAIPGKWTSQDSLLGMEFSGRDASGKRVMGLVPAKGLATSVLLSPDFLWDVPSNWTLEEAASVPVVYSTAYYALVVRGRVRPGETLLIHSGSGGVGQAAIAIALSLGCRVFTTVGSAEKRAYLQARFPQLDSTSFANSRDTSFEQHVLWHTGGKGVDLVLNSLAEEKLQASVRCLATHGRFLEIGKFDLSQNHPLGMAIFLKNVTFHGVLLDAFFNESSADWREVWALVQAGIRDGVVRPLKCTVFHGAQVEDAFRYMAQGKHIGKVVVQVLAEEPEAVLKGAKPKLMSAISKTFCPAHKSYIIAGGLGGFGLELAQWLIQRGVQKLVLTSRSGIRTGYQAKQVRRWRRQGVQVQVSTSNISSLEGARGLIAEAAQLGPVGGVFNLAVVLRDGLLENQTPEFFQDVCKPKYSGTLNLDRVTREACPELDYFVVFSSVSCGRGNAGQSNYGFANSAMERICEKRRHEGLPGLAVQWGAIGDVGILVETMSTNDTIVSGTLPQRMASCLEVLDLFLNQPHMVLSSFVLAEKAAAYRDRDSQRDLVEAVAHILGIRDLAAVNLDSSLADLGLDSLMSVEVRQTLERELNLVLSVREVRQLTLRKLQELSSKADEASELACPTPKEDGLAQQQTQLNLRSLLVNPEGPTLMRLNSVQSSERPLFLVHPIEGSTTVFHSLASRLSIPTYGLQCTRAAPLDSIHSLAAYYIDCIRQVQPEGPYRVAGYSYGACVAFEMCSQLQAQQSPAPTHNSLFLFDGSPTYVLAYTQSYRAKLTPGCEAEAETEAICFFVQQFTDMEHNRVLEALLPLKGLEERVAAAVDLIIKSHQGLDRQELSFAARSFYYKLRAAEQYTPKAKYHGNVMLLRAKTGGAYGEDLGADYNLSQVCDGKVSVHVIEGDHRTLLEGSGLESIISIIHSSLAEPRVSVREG
Chain of Lysosomal acid glucosylceramidase (P04062 whole entry): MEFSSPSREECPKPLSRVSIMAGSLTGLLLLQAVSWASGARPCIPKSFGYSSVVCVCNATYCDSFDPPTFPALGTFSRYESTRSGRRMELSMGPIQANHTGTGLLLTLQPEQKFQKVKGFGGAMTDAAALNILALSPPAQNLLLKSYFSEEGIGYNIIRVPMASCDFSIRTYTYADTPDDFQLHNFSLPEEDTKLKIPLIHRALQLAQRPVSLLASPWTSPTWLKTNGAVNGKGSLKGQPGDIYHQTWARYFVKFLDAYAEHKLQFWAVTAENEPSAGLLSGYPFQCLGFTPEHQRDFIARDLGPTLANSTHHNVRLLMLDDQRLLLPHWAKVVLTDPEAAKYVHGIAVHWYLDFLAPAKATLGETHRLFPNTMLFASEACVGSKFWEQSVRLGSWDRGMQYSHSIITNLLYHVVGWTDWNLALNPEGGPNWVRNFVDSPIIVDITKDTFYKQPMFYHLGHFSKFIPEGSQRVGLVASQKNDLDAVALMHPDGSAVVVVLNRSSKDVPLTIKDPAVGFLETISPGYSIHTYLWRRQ
Chain of C-C chemokine receptor type 6 (P51684 whole entry): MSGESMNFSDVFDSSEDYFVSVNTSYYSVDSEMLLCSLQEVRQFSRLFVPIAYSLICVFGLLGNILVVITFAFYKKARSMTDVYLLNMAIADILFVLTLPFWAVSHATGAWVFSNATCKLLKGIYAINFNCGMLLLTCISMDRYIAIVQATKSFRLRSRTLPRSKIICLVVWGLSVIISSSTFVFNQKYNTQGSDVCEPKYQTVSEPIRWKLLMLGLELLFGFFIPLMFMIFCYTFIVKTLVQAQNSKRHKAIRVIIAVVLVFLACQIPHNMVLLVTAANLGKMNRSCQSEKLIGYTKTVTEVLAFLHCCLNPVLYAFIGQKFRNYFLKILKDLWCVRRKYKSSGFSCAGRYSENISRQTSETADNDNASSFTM
Chain of Vasopressin V1a receptor (P37288 whole entry): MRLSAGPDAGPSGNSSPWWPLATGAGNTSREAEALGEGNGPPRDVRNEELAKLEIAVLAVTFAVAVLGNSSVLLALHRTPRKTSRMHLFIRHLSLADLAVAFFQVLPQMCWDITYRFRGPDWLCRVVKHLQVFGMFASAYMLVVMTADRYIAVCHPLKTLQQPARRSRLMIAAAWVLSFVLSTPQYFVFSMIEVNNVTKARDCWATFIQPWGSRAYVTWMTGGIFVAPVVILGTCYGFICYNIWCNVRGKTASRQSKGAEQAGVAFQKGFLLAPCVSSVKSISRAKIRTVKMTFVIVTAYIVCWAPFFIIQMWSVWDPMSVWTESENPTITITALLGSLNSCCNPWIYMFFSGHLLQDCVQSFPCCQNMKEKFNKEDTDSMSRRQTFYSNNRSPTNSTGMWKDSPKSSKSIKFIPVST
Chain of Serine/threonine-protein phosphatase PP1-alpha catalytic subunit (P62136 whole entry): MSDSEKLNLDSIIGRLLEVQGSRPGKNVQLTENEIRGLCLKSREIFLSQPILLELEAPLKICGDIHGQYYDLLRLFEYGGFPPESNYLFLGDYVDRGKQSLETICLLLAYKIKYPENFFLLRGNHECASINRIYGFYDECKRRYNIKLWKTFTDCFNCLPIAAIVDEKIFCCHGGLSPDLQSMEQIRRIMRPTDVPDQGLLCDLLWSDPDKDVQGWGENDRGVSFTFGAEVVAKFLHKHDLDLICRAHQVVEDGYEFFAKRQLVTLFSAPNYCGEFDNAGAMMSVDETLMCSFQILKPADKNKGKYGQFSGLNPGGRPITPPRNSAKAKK
Chain of Cytochrome P450 2C9 (P11712 whole entry): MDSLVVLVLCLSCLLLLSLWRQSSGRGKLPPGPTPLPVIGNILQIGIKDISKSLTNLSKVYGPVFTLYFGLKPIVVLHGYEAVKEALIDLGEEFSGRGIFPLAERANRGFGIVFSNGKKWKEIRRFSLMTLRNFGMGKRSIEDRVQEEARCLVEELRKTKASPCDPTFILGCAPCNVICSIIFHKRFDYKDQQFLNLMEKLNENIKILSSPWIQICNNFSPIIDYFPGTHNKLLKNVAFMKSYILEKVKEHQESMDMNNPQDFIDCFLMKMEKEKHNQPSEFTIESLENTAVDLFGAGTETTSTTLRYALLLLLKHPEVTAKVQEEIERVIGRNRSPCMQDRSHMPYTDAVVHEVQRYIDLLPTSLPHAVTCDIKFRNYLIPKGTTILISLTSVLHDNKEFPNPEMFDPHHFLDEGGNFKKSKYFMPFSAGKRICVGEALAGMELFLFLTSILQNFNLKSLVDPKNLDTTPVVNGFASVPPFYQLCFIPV
Chain of Oxytocin receptor (P30559 whole entry): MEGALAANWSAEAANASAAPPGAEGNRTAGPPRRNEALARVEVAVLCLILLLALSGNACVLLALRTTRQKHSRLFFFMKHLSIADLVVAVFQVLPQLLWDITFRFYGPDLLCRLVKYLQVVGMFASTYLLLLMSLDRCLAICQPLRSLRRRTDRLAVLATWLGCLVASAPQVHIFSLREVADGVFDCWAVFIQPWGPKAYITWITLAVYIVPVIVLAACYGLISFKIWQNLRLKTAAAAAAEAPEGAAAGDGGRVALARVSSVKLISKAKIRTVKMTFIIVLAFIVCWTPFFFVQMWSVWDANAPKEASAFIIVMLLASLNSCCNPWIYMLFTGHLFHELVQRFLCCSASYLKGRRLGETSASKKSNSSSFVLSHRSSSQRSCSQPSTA

For `CCC12C=C(/C=C/c3ccccc3)C(CC)(C1)C(c1ccccc1)CC2=O` (centres undefined), the AC50 (Cytochrome P450 2C9) was 1.58 µM (inconclusive) and the AC50 (Cytochrome P450 3A4) was 6.31 µM (inconclusive).

With `Fc1nc(F)c(F)c(NCCCNc2c(F)c(F)nc(F)c2F)c1F` the IC50 [1] was > 100 µM (active), the IC50 (Fatty acid synthase [2]) was 26 µM (inactive) and the CC50 [3] was 24 µM (active). The IC50 (Fatty acid synthase [4]) was 7.19 µM (active).

In the case of `COc1ncccc1-c1nnn(-c2ccc(Cl)c(Cl)c2)n1`, the IC50 (Bcl-2-related protein A1 [5]) is reported as > 100 µM (not active) and the IC50 (Bcl-2-related protein A1 [6]) is reported as > 100 µM (not active).

With `Cc1nnc(NC(=O)C2C3C=CC(O3)C2C(=O)O)s1` (centres undefined) the IC50 [7] was > 67 µM (not active) and the IC50 [8] was > 67 µM (not active).

For `CCOC(=O)c1cc2c(N)c(C(=O)c3ccc(Br)cc3)sc2nc1O`, the IC50 [9] was 34 µM (active).

For `c1nc2cc(Cc3ccc4[nH]cnc4c3)ccc2[nH]1`, the IC50 (cells) was 44.5 µM (active) and the CC50 [10] was > 50 µM (active).

In the case of `O=C(NCCCN1CCCC1=O)c1ccc2c(=O)n(Cc3ccco3)c(=S)[nH]c2c1`, the EC50 [11] is reported as > 50 µM (not active).

With `O=C(CSc1nccn1-c1ncc(C(F)(F)F)cc1Cl)c1ccc(Br)cc1` the EC50 [12] was 0.247 µM (active), the IC50 (Beta-galactosidase) was > 66.6 µM (inactive) and the IC50 [13] was > 66.6 µM (inactive). The EC50 (H4) was 7.85 µM (active) and the EC50 [14] was 0.233 µM (active).

For `Oc1ccc(Cl)cc1CNCc1ccc(Cl)nc1`, the EC50 (Oxytocin receptor) was 19.5 µM (not active) and the EC50 (Vasopressin V1a receptor) was 17.5 µM (not active).

In the case of `COc1ccc2c(Cl)c(C(=O)N/N=C3\CCCC(=O)C3)sc2c1`, the IC50 [15] is reported as 26.2 µM (not active), the AC50 [16] is reported as 1.98 µM (active) and the IC50 (Insulin-degrading enzyme) is reported as > 55.9 µM (not active).
